Data from patent EP0276057B1, “Piperazinylpyrimidines as beta-adrenergic receptor blocking agents” (Merck & Co., Inc., priority 1987, dated 1988).

What was measured:
ß1 = ß1 (Homo sapiens, UniProt P08588); assay: Block of ligand binding to β-adrenergic receptor, ß1; conditions: for IC50: read-out: Concentration (nM) To Block Binding of Ligand by 50% ß1; for inhibition at 10 µM: at 10,000 nM, 50% blockade not achieved at reasonable concentrations, read-out: % blocked at nM concentration shown ß1
ß2 = ß2 (Homo sapiens, UniProt P07550); assay: Block of ligand binding to β-adrenergic receptor, ß2; conditions: for IC50: read-out: Concentration (nM) To Block Binding of Ligand by 50% ß2; for inhibition at 10 µM: at 10,000 nM, 50% blockade not achieved at reasonable concentrations, read-out: % blocked at nM concentration shown ß2
ß2, sequence (P07550 whole entry): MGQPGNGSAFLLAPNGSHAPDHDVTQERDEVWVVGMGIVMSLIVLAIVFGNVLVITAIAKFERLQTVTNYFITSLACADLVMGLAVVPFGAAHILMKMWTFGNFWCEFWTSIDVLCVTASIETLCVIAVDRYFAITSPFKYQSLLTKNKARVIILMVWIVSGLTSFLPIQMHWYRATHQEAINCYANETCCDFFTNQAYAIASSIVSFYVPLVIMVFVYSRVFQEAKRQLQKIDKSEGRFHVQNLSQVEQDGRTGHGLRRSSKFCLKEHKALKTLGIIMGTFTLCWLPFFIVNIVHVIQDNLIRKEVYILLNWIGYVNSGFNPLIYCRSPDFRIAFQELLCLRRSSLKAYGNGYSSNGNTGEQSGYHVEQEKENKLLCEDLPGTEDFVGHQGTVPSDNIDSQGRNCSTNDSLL

ß1, sequence (P08588 whole entry): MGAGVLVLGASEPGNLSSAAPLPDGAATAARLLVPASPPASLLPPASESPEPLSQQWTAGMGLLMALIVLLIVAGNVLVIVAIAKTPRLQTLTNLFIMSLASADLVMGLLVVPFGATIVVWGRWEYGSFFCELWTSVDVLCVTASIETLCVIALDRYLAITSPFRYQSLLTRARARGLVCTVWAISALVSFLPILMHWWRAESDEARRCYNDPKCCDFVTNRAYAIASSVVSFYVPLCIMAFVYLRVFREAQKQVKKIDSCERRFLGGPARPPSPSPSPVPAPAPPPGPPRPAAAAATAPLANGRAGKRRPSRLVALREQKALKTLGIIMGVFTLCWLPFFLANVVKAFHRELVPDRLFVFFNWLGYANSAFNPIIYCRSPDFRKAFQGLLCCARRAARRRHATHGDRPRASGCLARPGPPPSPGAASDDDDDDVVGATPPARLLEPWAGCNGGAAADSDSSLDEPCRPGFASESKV

SMILES | IC50 (ß1) [nM] | IC50 (ß2) [nM] | inhibition at 10 µM (ß1) [%] | inhibition at 10 µM (ß2) [%]
CCc1nc(N2CCN(C)CC2)c2sccc2n1 | 2400 | 1040 | – | –
CCCCc1nc2c(c(N3CCN(C)CC3)n1)SCCC2 | 4300 | 4800 | – | –
Cc1nc2c(c(N3CCN(C)CC3)n1)CSC2 | – | – | 15 | 24
CCc1nc(N2CCNCC2)c2sccc2n1 [R^1 = -C2H5, R^2 = H (the 2nd table r0 drawing)] | 300 | 140 | – | –
Cc1nc2c(c(N3CCNCC3)n1)CSC2 [R^1 = -CH3, R^2 = H (the 1st table r11 drawing)] | 820 | 340 | – | –

Continued, values first:

IC50 (ß1) [nM] | IC50 (ß2) [nM] | inhibition at 10 µM (ß1) [%] | inhibition at 10 µM (ß2) [%] | SMILES
– | 27000 | 3 | – | CCN1CCN(c2nc(C)nc3c2SCCC3)CC1
– | – | 0 | 0 | Cc1nc2c(c(N3CCN(Cc4ccccc4)CC3)n1)SCCC2
– | – | 6 | 8 | Cc1nc2c(c(N3CCN(C4CC4)CC3)n1)SCCC2
680 | 314 | – | – | Cc1nc2c(c(N3CCNCC3)n1)SCCC2 [R^1 = -CH3, R^2 = H (the 1st table r1 drawing)]
